# In ChEMBL document CHEMBL1938376, “In vitro and in silico studies of polycondensed diazine systems as anti-parasitic agents” (Bioorg Med Chem Lett, 2012):
# Tests used:
# Trypanosoma brucei = assay: Antiparasitic activity against trypomastigote form of drug-sensitive Trypanosoma brucei assessed as inhibition of parasite growth after 4 days using alamar blue/resazurin staining by fluorimetric method; format: functional, organism-based
# Trypanosoma cruzi = assay: Antiparasitic activity against nifurtimox-sensitive amastigotes of Trypanosoma cruzi Tulahuen expressing LacZ gene infected in human MRC5 cells using chlorophenolred b-Dgalacto-pyranoside as substrate by colorimetric method; format: functional, organism-based
# Plasmodium falciparum = assay: Antimalarial activity against chloroquine-sensitive Plasmodium falciparum GHA infected in human erythrocytes assessed as parasite growth after 72 hrs by malstat reagent based spectrophotometric method; format: functional, organism-based
# MRC5 = assay: Cytotoxicity against human MRC5 cells after 4 to 7 days using alamar blue/resazurin staining by fluorescence assay; format: cell-based
# Leishmania infantum = assay: Antiparasitic activity against amastigotes of Leishmania infantum infected in mouse peritoneal macrophages after 5 days using giemsa staining by microscopic analysis; format: functional, organism-based
# [1] = Solubility of the compound in 13% DMSO/water; format: physicochemical; conditions: buffer
# [2] = Selectivity index, ratio of IC50 for human MRC5 cells to IC50 for drug-sensitive trypomastigotes of Trypanosoma brucei; format: toxicity, cell-based; conditions: read-out: Ratio IC50
# [3] = Solubility of the compound; format: physicochemical
# [4] = Selectivity index, ratio of IC50 for human MRC5 cells to IC50 for nifurtimox-sensitive amastigotes of Trypanosoma cruzi; format: toxicity, cell-based; conditions: read-out: Ratio IC50
# [5] = Solubility of the compound in 100% DMSO; format: physicochemical
# [6] = Selectivity index, ratio of IC50 for human MRC5 cells to IC50 for chloroquine-sensitive Plasmodium falciparum GHA; format: toxicity, cell-based; conditions: read-out: Ratio IC50
# [7] = Trypanosoma cruzi, Tulahuen, MRC5
# [8] = Plasmodium falciparum, GHA, 72 h
SMILES,IC50 (Trypanosoma brucei) [µM],IC50 (Trypanosoma cruzi; mrc5) [µM],IC50 (Plasmodium falciparum) [µM],IC50 (MRC5; mrc5) [µM],"IC50 (Leishmania infantum; Leishmania infantum, 120 h) [µM]",solubility [1],"IC50 (Trypanosoma brucei; Trypanosoma brucei, 96 h) [µM]",IC50 (Trypanosoma cruzi; [7]) [µM],IC50 (Plasmodium falciparum; [8]) [µM],"IC50 (MRC5; Homo sapiens, MRC5) [µM]",selectivity ratio [2],IC50 (Leishmania infantum) [µM],solubility [3],selectivity ratio [4],solubility [5],selectivity ratio [6]
CCOC(=O)C1=NN(c2ccc(Cl)cc2)C2C3N(c4ccc(Cl)cc4)N=C(C(=O)OCC)N3c3ccccc3N12 (stereo in doubt; 4f),64,64,37.3,64,64,soluble,,,,,,,,,,
COC(=O)C1=NN(c2ccccc2)C2=CNc3c(C)cccc3N21,,,,,64,soluble,64,64,64,64,,,,,,
C[C@]12[C@@H]3N(c4ccccc4)N=C(C(=O)c4ccccc4)N3c3ccccc3N1C(C(=O)c1ccccc1)=NN2c1ccccc1 (racemic),,,,,8,soluble,2.06,10.1,8.23,64,2,,,,,
COC(=O)C1=NN(c2ccccc2)C2C3N(c4ccccc4)N=C(C(=O)OC)N3c3ccccc3N12 (stereo in doubt; 4e),34.6,42.5,25.6,33.1,,,,,,,,,,,,
CC(=O)C1=NN(c2ccccc2)C2C3N(c4ccccc4)N=C(C(C)=O)N3c3ccccc3N12 (stereo in doubt; 4b),8.06,12.6,8.48,29.6,,,,,,,,32.5,,,,
O=C(C1=NN(c2ccccc2)C2C3N(c4ccccc4)N=C(C(=O)c4ccccc4)N3c3ccccc3N12)c1ccccc1 (configuration not stated),,,,,32.5,soluble,2.03,64,27.7,17.6,2,,soluble,,,
COC(=O)C1=NN(c2ccc(Cl)cc2)C2(C1)Nc1ccccc1N1C(C(=O)OC)=NN(c3ccc(Cl)cc3)C12 (racemic),,,,,64,soluble,64,64,64,64,,,,,,
COC(=O)C1=NN(c2ccccc2)C2C3N(c4ccccc4)N=C(C(=O)OC)N3c3ccccc3N12 (stereo in doubt; 4d),,,12.3,,64,soluble,64,64,,64,,,,6,,
COC(=O)C1=NN(c2ccccc2)[C@@H]2N1c1ccccc1N1C(C(=O)OC)=NN(c3ccccc3)[C@@]21C (racemic),,,,,64,soluble,64,4.29,11.6,64,,,,6,,
COC(=O)C1=NN(c2ccccc2)C2=CN=C3NC(c4ccccc4)=CC3N21 (configuration not stated),,,,,64,,64,64,64,64,,,,,Insoluble,
CC(=O)C1=NN(c2ccccc2)C2C3N(c4ccccc4)N=C(C(C)=O)N3c3[nH]c(-c4ccccc4)cc3N12 (configuration not stated),,,,,32.5,,64,64,2.15,64,,,soluble,,Insoluble,
CC(=O)C1=NN(c2ccccc2)[C@@H]2N1c1ccccc1N1C(C(C)=O)=NN(c3ccccc3)[C@@]21C (racemic),,,,,24.1,soluble,32.2,33.7,29.2,64,,,,,,
CCOC(=O)C1=NN(c2ccc(Cl)cc2)C2C3N(c4ccc(Cl)cc4)N=C(C(=O)OCC)N3c3[nH]c(-c4ccccc4)cc3N12 (configuration not stated),,,,,64,soluble,32.2,40.3,26.9,64,,,,,,
COC(=O)C1=NN(c2ccccc2)C2C3N(c4ccccc4)N=C(C(=O)OC)N3c3[nH]c(-c4ccccc4)cc3N12 (configuration not stated),,,,,32.5,soluble,64,64,6.87,64,,,,,,
CCOC(=O)C1=NN(c2ccc(Cl)cc2)[C@@H]2N1c1ccccc1N1C(C(=O)OCC)=NN(c3ccc(Cl)cc3)[C@@]21C (racemic),,,,,64,soluble,64,64,0.5,64,,,soluble,,,128
C1=NN(c2ccccc2)C2C3N(C=NN3c3ccccc3)c3ccccc3N12 (configuration not stated),,,,,64,soluble,64,64,29.8,64,,,,,,
COC(=O)C1=NN(c2ccc(Cl)cc2)C2C3N(c4ccc(Cl)cc4)N=C(C(=O)OC)N3c3c(C)cccc3N12 (racemic),,,,,64,soluble,64,64,42.6,64,,,,,,
C1=C(c2ccccc2)NC2=NC=C3N(c4ccccc4)N=C(c4ccccc4)N3C12 (configuration not stated),,,,,64,,64,64,64,64,,,,,Insoluble,
CCOC(=O)C1=NN(c2ccc(Cl)cc2)C2C3N(c4ccc(Cl)cc4)N=C(C(=O)OCC)N3c3ccccc3N12 (stereo in doubt; 4g),2.01,8.75,18.6,12.4,,,,,,,2,32,soluble,6,,
CC(=O)C1=NN(c2ccccc2)C2C3N(c4ccccc4)N=C(C(C)=O)N3c3ccccc3N12 (stereo in doubt; 4a),64,38.1,64,64,32,soluble,,,,,,,,,,
